Some test systems named below: DU-145 prostate; T-47D breast; PC-3 prostate; SF-295 CNS; HOP-62 NSCLC; SR leukemia; A549 NSCLC; ACHN renal; TK-10 renal; HOP-18 NSCLC; P388 leukemia; SNB-78 CNS; P388/ADR leukemia.
Common to all, as to experiment: NCI tumour cell line growth inhibition, 48 h

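Test compounds were applied to cells in 96-well plates for 48 hours at 5 doses. Here, GI50 denotes the concentration required for 50% inhibition of growth. At the TGI there is no net growth.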 Bounds are passed on as bounds.

Regarding `Cc1ccc(Nc2nc(=O)c3c([nH]c4ccccc43)s2)cc1`, the TGI is 32.5 µM in the test with DU-145 prostate; 43.7 µM in the test on T-47D breast; 28.3 µM in the test with PC-3 prostate; 24.3 µM in the test on SF-295 CNS; 21.8 µM in the test with HOP-62 NSCLC; over 100 µM with SR leukemia. Moreover, the results for the TGI in the test on A549 NSCLC, in the test on ACHN renal and with TK-10 renal were 25.1 µM, 35.4 µM and 23.9 µM, respectively.

As to `CSCC(CO)NC(=O)/C=C/c1c(C)[nH]c(=O)[nH]c1=O` (stereo not given), the TGI in the test with SF-295 CNS, in the test on HOP-62 NSCLC, in the test with HOP-18 NSCLC, in the test on P388 leukemia, in the test with A549 NSCLC and in the test on SNB-78 CNS was over 875 µM throughout. In the test with P388/ADR leukemia, the TGI is over 875 µM.

For `CC(=O)OC1CC(OC2C(O)CC(OC3C(O)CC(OC4CCC5(C)C(CCC6C5CCC5(C)C(C7=CC(=O)OC7)CCC65O)C4)OC3C)OC2C)OC(C)C1OC1OC(CO)C(O)C(O)C1O` (stereo not given), the TGI in the test with DU-145 prostate is 0.0489 µM; in the test on T-47D breast it was 0.344 µM; in the test with PC-3 prostate, 0.159 µM; in the test on SF-295 CNS, 0.142 µM; in the test on HOP-62 NSCLC, under 0.0156 µM; with A549 NSCLC it was 0.0221 µM. The values for the TGI with ACHN renal and in the test on TK-10 renal were 0.0942 µM and 0.149 µM, respectively.

In the case of `O=C(Sc1n[nH]c(=O)[nH]c1=O)c1cccc2nc3ccccc3nc12`, the TGI in the test with DU-145 prostate was 36.2 µM; with T-47D breast, over 100 µM; with SF-295 CNS, over 100 µM; with SR leukemia it was over 100 µM; in the test on A549 NSCLC, 50.4 µM; in the test on ACHN renal it was over 100 µM. In the test on TK-10 renal, this compound registered a TGI of over 100 µM.

`CN(C)c1cccc(OC(=O)NCCCl)c1`: the TGI in the test on SF-295 CNS, in the test on HOP-62 NSCLC, in the test with HOP-18 NSCLC, with A549 NSCLC, in the test with SNB-78 CNS and with P388/ADR leukemia was over 100 µM each time. Besides, the GI50 with SNB-78 CNS is over 100 µM.

For the compound `S=c1[nH]n2c(COc3ccc(Cl)cc3)nnc2s1`, the TGI in the test with DU-145 prostate, with T-47D breast, in the test on PC-3 prostate, in the test with SF-295 CNS, with HOP-62 NSCLC and with SR leukemia was over 100 µM each time. The TGI in the test on A549 NSCLC, in the test on ACHN renal and in the test with TK-10 renal was over 100 µM in each case.

Take `CC1(C)N=C(c2ccccc2)SC12S[C@@H]1CCCC[C@H]1S2`: the TGI in the test with DU-145 prostate, in the test on T-47D breast, in the test on PC-3 prostate, in the test on SF-295 CNS, in the test with HOP-62 NSCLC and in the test on A549 NSCLC was over 100 µM throughout. Further, the TGI in the test on ACHN renal and in the test on TK-10 renal was over 100 µM each time.

As to `O=S(O)CCCSSSCCCS(=O)O`, the TGI with HOP-62 NSCLC, in the test with SR leukemia, in the test on SNB-78 CNS, in the test with ACHN renal and with TK-10 renal was over 100 µM throughout.

For the compound `CO/C=C1\OC(=O)C=C1OC`, the TGI in the test on SF-295 CNS, in the test on HOP-18 NSCLC, in the test with P388 leukemia, in the test on A549 NSCLC, in the test with SNB-78 CNS and in the test with P388/ADR leukemia was over 100 µM in each case.

For `c1ccc2c(c1)SP1Sc3ccccc3P21` (stereo not given), the TGI is over 100 µM in the test with SF-295 CNS; over 100 µM with HOP-62 NSCLC; 73.1 µM in the test on HOP-18 NSCLC; over 100 µM with P388 leukemia; over 100 µM in the test on A549 NSCLC; over 100 µM in the test with SNB-78 CNS. The compound further yielded a TGI in the test with P388/ADR leukemia of over 100 µM.

As to `Cc1cccc2c1Sc1ccccc1C2NC(=O)CN(C)C` (stereo not given), the TGI with HOP-62 NSCLC, in the test with SR leukemia, in the test with A549 NSCLC, with SNB-78 CNS, in the test with ACHN renal and in the test with TK-10 renal was over 100 µM each time.

With `c1csc(-c2ccc(CNc3c4ccccc4nc4ccccc34)cc2)c1`, the GI50 in the test with DU-145 prostate is 1.65 µM; in the test with T-47D breast, 13.6 µM; with PC-3 prostate, 1.08 µM; in the test with SF-295 CNS it was 1.31 µM; in the test with HOP-62 NSCLC, 6.29 µM; with TK-10 renal it was 1.76 µM. The TGI with DU-145 prostate amounted to 3.07 µM; with T-47D breast, 55.6 µM; in the test on PC-3 prostate, 2.47 µM; in the test with SF-295 CNS it was 2.67 µM; in the test on HOP-62 NSCLC it was 38.4 µM; with TK-10 renal, 3.28 µM.

Regarding `CN(c1ccccc1)c1nc(=[N+]2CCCC2)ss1`, the TGI in the test on HOP-18 NSCLC, in the test with SR leukemia, in the test on A549 NSCLC, in the test with SNB-78 CNS, with ACHN renal and in the test on TK-10 renal was over 100 µM in each case.

Turning to `NNC(=O)CCc1ccc2ccc3ccccc3c2c1`, the TGI in the test with DU-145 prostate, in the test with T-47D breast, in the test on PC-3 prostate, with SF-295 CNS, in the test with HOP-62 NSCLC and in the test with SR leukemia was over 100 µM throughout. Besides, the TGI with ACHN renal and in the test on TK-10 renal was over 100 µM throughout.

(Values after PubChem BioAssay (NCI).)
